Structures are written as SMILES.

Data set [1] relates to COS7 cells. Briefly: Cell viability after UV irradiation by trypan blue exclusion. It is filed as cell-based, monkey. The method, then:
COS7 (monkey kidney) cells were grown in DMEM high glucose (Gibco no. 11995; with L-glutamine and Na-pyruvate)+10% FCS. Typically, 3 cm2 of cells are needed for a cross-linking experiment with detection by western blotting. At about 70%, medium was replaced by LM-4 (DMEM lacking Met, Leu, Ile and Val and phenol red, supplemented with 5% dialyzed FCS) or by LM-2 (LM-4+1 mM of each Ile and Val). Photo-amino acids were added to a final concentration of 4 mM photo-Leu and photo-Ile, 1.7 mM photo-Met and cells were cultivated for further 22 h followed by washing with PBS and UV-irradiation using a 200 W high pressure mercury lamp (Oriel Photomax) with a glass filter to remove wavelengths shorter 310 nm. The samples were placed at a distance of 38 cm to the light source, corresponding to a illuminated area of 105 mm diameter. […] We used an irradiation time 1-3 min for experiments with living cells. […] Lysis of cells, SDS-PAGE and western blotting were done as described^33. For immunoprecipitation, cells were lysed in 20 mM Hepes/NaOH pH 7.4, 100 mM NaCl, 5 mM EDTA, 1% Triton X 100, 0.5% sodium deoxycholate, the lysate was cleared with protein-A beads and incubated with beads that were preincubated with polyclonal anti-myc or anti-HA antibody. Beads were collected and washed three times each with 20 mM Hepes/NaOH pH 7.25, 0.5% CHAPS and with 100 mM Tris-HCl pH 8.3, 150 mM NaCl, 2 mM EDTA, 0.1% w/v SDS, 0.5% w/v Nonidet P40, 0.5% w/v sodiumdeoxycholate. Proteins were eluted from beads by heating with reducing SDS-PAGE sample buffer.
Unnatural amino acids frequently are toxic to cells. To find out if this is the case for photo-amino acids of the invention, we monitored in COS7 cells protein biosynthesis by incorporation of [^3H]Phe and viability by trypan blue exclusion of cells grown in the presence or absence of the photo-amino acids photo-Leu, photo-Met and photo-Ile. Due to the lack of two essential amino acids in the growth medium, protein biosynthesis is reduced to about 65% of that in a full growth medium. […] Although cells grew slightly slower than in full growth medium, viability (Table 2) and cell morphology (not shown) were unaffected.

For another data set, the system named is caveolin-1. The data set can be described thus: Photo-crosslinking of transfected caveolin-1 in COS7 cells. The data set is classed as cell-based, human. The conditions noted are these: irradiated samples, COS7 cells in LM-4. The method, then: FIG. 3: Photo-crosslinking induced by photo-amino acids. COS7 cells (panels a,b) or HeLa cells (panel c) were grown in LM-4 (panel a) or LM-2 (panels b,c) in the absence or presence of L-photo-Leu (pL), L-photo-Met (pM) or DL-photo-Ile (pl) or mixtures of them (pLM or PLMI) followed by UV irradiation (+) or no irradiation (−). cross-linked products formed after UV-irradiation were detected by SDS-PAGE followed by western blotting using (a) anti-caveolin 1 to detect overexpressed caveolin 1, (b) anti-stomatin to detect endogenous stomatin or (c) anti-EEA1 to detect endogenous EEA1. In panel b, lanes 8 and 9 show cross-linking with two different concentrations of the chemical cross-linker DSS for comparison of cross-linking efficiency. In panel c, photocrosslinking of endogenous EEA1 by photo-Leu and photo-Met is compared to chemical cross-linking using DSS or para-formaldehyde (PFA) as indicated. Note that chemical cross-linking leads to protein aggregates that are not resolvable by SDS-PAGE while photocrosslinking identifies more than six discrete cross-linked bands.
COS7 (monkey kidney) cells were grown in DMEM high glucose (Gibco no. 11995; with L-glutamine and Na-pyruvate)+10% FCS. Typically, 3 cm2 of cells are needed for a cross-linking experiment with detection by western blotting. At about 70%, medium was replaced by LM-4 (DMEM lacking Met, Leu, Ile and Val and phenol red, supplemented with 5% dialyzed FCS) or by LM-2 (LM-4+1 mM of each Ile and Val). Photo-amino acids were added to a final concentration of 4 mM photo-Leu and photo-Ile, 1.7 mM photo-Met and cells were cultivated for further 22 h followed by washing with PBS and UV-irradiation using a 200 W high pressure mercury lamp (Oriel Photomax) with a glass filter to remove wavelengths shorter 310 nm. The samples were placed at a distance of 38 cm to the light source, corresponding to a illuminated area of 105 mm diameter. […] We used an irradiation time 1-3 min for experiments with living cells. […] Lysis of cells, SDS-PAGE and western blotting were done as described^33. […]

The subject of another data set is Insig-1 and PGRMC1. Briefly: Photo-crosslinking of Insig-1 and PGRMC1 with immunoprecipitation and western blotting. The conditions noted are these: COS7 cells, UV-irradiated, IP anti-HA, blot anti-myc. It is filed as cell-based, human. The text has this: Cells were UV-irradiated or not irradiated as indicted, lysed and subjected to immunoprecipitation (IP) with anti-HA or anti-myc antibodies as indicated. Immunoprecipitated proteins were separated by SDS-PAGE and probed (WB) for the presence of cross-links with anti-myc antibody or anti-HA antibody as indicated. The small difference in apparent molecular weight of the cross-link is due to different percentage of SDS-PAGE gels used. The presence of uncrosslinked Insig-1 in the left lanes indicates non-covalent co-immunoprecipitation. The strong band in lanes 3 and 4 (IgG-HC) is crossreacting IgG heavy chain.
COS7 (monkey kidney) cells were grown in DMEM high glucose (Gibco no. 11995; with L-glutamine and Na-pyruvate)+10% FCS. […]
The methods of the invention have been applied to the study of protein-protein interactions between membrane proteins. […] To detect the cross-linked proteins, detergent extracts were immunoprecipitated for PGRMC1 with anti-HA antibody and precipitates analyzed for Insig-1 by western blotting with anti-myc antibody. If cells were grown in the absence of photo-Met, only a small amount of co-immunoprecipitated Insig-1, but no cross-linked band was detected (FIG. 6a, lane 2). […] An identical band was detected using the inverted order of detection, i.e. immunoprecipitation with anti-myc followed by blotting with anti-HA antibody (FIG. 6a, lane 3). […]
(In western blotting, separated proteins are transferred to a membrane and probed.)

The subject of data set [2] is COS7 cells. Briefly: Cell viability after UV irradiation by trypan blue exclusion. The data set is classed as cell-based, monkey. This is another data set of the same source.

Take `CC1(CCC(N)C(=O)O)N=N1` [photo-Met, L-2-amino-5,5′-azi-hexanoic acid]: the Cell viability in the data set with COS7 cells [1] (1 min UV) stood at 99.4 ± 0.5%; in the data set with COS7 cells [1] (1 min UV + 1 h chase) it was 96.1 ± 1.3%; in the data set on COS7 cells [1] (3 min UV), 99.5 ± 0.4%; with COS7 cells [1] (3 min UV + 1 h chase), 91.9 ± 6.8%; in the data set with COS7 cells [1] (no UV + 1 h chase at 37 degree Celsius in PBS), 99.4 ± 0.4%; in the data set on COS7 cells [1] (no UV, percent ± SD of viable cells), 99.8 ± 0.3%. In addition, the Cell viability in the data set with COS7 cells [2] (10 min UV) amounted to 99.4 ± 0.3%; with COS7 cells [2] (10 min UV + 1 h chase) it was 91.9 ± 1.4%; in the data set on COS7 cells [2] (30 min UV), 98.7 ± 0.4%; in the data set on COS7 cells [2] (30 min UV + 1 h chase), 17.4 ± 5.3%. The “formation of covalent caveolin dimers upon UV irradiation” value in the data set with caveolin-1 was “significant formation of a cross-linked dimer”. Moreover, in the data set with Insig-1 and PGRMC1, the “Insig-1×PGRMC1 cross-linked band” value is on record as “a strong band appeared”.
